Measured values taken from US12590062B2, “PD-1/PD-L1 inhibitors” (Gilead Sciences, Inc., priority 2017, dated 2026).

Columns and labels:
[1] = target: T1, interaction between the recombinant extracellular domain (ECD) of PD-1 and native cell-bound PD-L1 (Homo sapiens, UniProt Q9NZQ7); experiment: CHO/PD-L1 cell capture assay; assay type: cell-based; conditions: CHO cells overexpressing PD-L1, pre-incubated 1 hr with compound, captured on biotinylated Fc-PD-1 coated plates, 75 min at room temperature
T1 construct: expressed in transfected cells
In short: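 CHO cells stably overexpressing PD-L1 were pre-incubated 1 hr with compound, then captured 75 min at room temperature on biotinylated Fc-PD-1 ECD bound to streptavidin plates. After glutaraldehyde/Draq5 fixation-staining, captured cells were counted by high-content microscopy; EC50 from four-parameter dose-response fits.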

PD-1/PD-L1 interaction = target: T2, PD-1/PD-L1 interaction (Homo sapiens, UniProt Q9NZQ7); experiment: PD-1/PD-L1 NFAT reporter co-culture assay; assay type: cell-based; conditions: Jurkat PD-1 NFAT-luciferase cells co-cultured with aAPC-PD-L1 CHO cells, 6 hrs at 37° C.; read-out: EC50 NFAT Luciferase
T2 construct: expressed in transfected cells; host or cells: CHO cells (aAPC-PD-L1) co-cultured with Jurkat cells overexpressing PD-1 and an NFAT-luciferase reporter
In short: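 First, CHO cells displaying anti-CD3 antibody and PD-L1 were plated overnight. Next, compound-treated PD-1 Jurkat NFAT-luciferase reporter cells in 2% FBS RPMI were added for 6 h at 37 °C. Finally, ONE-Glo luminescence was read and EC50 values fitted with a four-parameter equation.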

PD-L1 = target: T3, PD-L1 (Homo sapiens, UniProt Q9NZQ7); experiment: PD-L1/PD-L1 dimerization biochemical protein-protein interaction assay (ALPHA); assay type: binding; conditions: compound-induced PD-L1 dimerization, head prints '1 nM' (0.5 nM His-tagged PD-L1 and 0.5 nM FLAG-tagged PD-L1), read-out: AC50 PDL1 Dimer Alpha 1 nM
T3 construct: determine if they can specifically dimerize the extracellular domains of PD-L1
In short: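 ALPHA proximity assay of compound-induced dimerization of 0.5 nM His-tagged and 0.5 nM FLAG-tagged PD-L1 extracellular domains in Hepes pH 7.4 buffer, 2 h at 25 °C. Anti-His acceptor then anti-FLAG donor beads, 60 min each; AC50 from four-parameter fit.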

T2 sequence (Q9NZQ7 19-290): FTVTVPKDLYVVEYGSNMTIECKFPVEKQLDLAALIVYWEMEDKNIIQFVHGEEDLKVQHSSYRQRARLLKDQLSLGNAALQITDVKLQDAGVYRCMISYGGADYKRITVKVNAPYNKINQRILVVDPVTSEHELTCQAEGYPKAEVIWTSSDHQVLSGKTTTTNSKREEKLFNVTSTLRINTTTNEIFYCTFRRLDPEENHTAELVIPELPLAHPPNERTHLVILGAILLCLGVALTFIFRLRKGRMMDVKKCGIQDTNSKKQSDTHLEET
T1 sequence (Q9NZQ7 19-290): as above
T3 sequence (Q9NZQ7 19-238 limits assumed): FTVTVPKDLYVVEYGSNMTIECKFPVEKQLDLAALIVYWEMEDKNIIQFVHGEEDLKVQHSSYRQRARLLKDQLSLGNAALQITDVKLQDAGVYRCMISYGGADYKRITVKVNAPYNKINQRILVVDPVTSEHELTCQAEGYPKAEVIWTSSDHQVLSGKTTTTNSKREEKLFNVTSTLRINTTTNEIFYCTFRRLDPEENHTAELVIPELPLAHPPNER
T3 sequence (Q9NZQ7 19-238 limits assumed): as above

| Compound | EC50 [1] [nM] | EC50 (PD-1/PD-L1 interaction) [nM] | AC50 (PD-L1) [nM] |
| --- | --- | --- | --- |
| Cc1c(COc2cc(OCc3cncc(C#N)c3)c(CNC[C@@H](O)CC(=O)O)cc2Cl)cccc1-c1cccc(-c2ccc(OCCNC[C@@H](O)CC(=O)O)c([N+](=O)[O-])c2)c1C [Example 92, (S)-4-((4-((4″-(2-(((S)-3-carboxy-2-hydroxypropyl)amino)ethoxy)-2,2′-dimethyl-3″-nitro-[1,1′:3′,1″-terphenyl]-3-yl)methoxy)-5-chloro-2-((5-cyanopyridin-3-yl)methoxy)benzyl)amino)-3-hydroxybutanoic acid] | 25.9 | 63 | 170 |
| Cc1c(COc2cc(OCc3cncc(C#N)c3)c(CN[C@@H](C)C(=O)O)cc2Cl)cccc1-c1cccc(-c2ccc(OCCN[C@@H](C)C(=O)O)c([N+](=O)[O-])c2)c1C [Example 93, (4-((4″-(2-(((S)-1-carboxyethyl)amino)ethoxy)-2,2′-dimethyl-3″-nitro-[1,1′:3′,1″-terphenyl]-3-yl)methoxy)-5-chloro-2-((5-cyanopyridin-3-yl)methoxy)benzyl)-L-alanine] | 44.4 | 127 | 145 |
| COc1nc(OCc2cccc(-c3cccc(-c4ccc(OCCNC[C@@H](O)CC(=O)O)cc4)c3C)c2C)c(Cl)cc1CNC[C@@H](O)CC(=O)O [Example 109, (S)-4-(((6-((4″-(2-(((S)-3-carboxy-2-hydroxypropyl)amino)ethoxy)-2,2′-dimethyl-[1,1′:3′,1″-terphenyl]-3-yl)methoxy)-5-chloro-2-methoxypyridin-3-yl)methyl)amino)-3-hydroxybutanoic acid] | 7.5 | 662 | 113 |
| COc1nc(OCc2cccc(-c3cccc(-c4ccc(OCCNC[C@H](O)CC(=O)O)cc4)c3C)c2C)c(Cl)cc1CNC[C@H](O)CC(=O)O [Example 110, (R)-4-(((6-((4″-(2-(((R)-3-carboxy-2-hydroxypropyl)amino)ethoxy)-2,2′-dimethyl-[1,1′:3′,1″-terphenyl]-3-yl)methoxy)-5-chloro-2-methoxypyridin-3-yl)methyl)amino)-3-hydroxybutanoic acid] | 6.5 | 354 | 194 |
| Cc1c(COc2cc(OCc3cncc(C#N)c3)c(CNC[C@@H](O)CC(=O)O)cc2Cl)cccc1-c1cccc(-c2ccc(OCCNC[C@@H](O)CC(=O)O)cn2)c1C [Example 112, (S)-4-((4-((3′-(5-(2-(((S)-3-carboxy-2-hydroxypropyl)amino)ethoxy)pyridin-2-yl)-2,2′-dimethyl-[1,1′-biphenyl]-3-yl)methoxy)-5-chloro-2-((5-cyanopyridin-3-yl)methoxy)benzyl)amino)-3-hydroxybutanoic acid] | 34.4 | 286 | 184 |
| COc1nc(OCc2cccc(-c3cccc(COc4nc(OC)c(CN(CCCC(N)=O)CC(=O)O)cc4Br)c3C)c2C)c(Br)cc1CN(CCCC(N)=O)CC(=O)O [Example 117, 2,2′-((((((2,2′-dimethyl-[1,1′-biphenyl]-3,3′-diyl)bis(methylene))bis(oxy))bis(5-bromo-2-methoxypyridine-6,3-diyl))bis(methylene))bis((4-amino-4-oxobutyl)azanediyl))diacetic acid] | 158 | 779 | 361 |
| Cc1c(COc2nc(OCc3cc(C#N)cc(C#N)c3)c(CN[C@@](C)(CO)C(=O)O)cc2Cl)cccc1-c1cccc(COc2nc(OCc3cc(C#N)cc(C#N)c3)c(CN[C@@](C)(CO)C(=O)O)cc2Cl)c1C [Example 123, (2S,2′S)-2,2′-((((((2,2′-dimethyl-[1,1′-biphenyl]-3,3′-diyl)bis(methylene))bis(oxy))bis(5-chloro-2-((3,5-dicyanobenzyl)oxy)pyridine-6,3-diyl))bis(methylene))bis(azanediyl))bis(3-hydroxy-2-methylpropanoic acid)] | 137 | 75 | 198 |
| Cc1c(COc2nc(OCc3cc(C#N)cc(C#N)c3)c(CN[C@@H](CO)C(=O)O)cc2Cl)cccc1-c1cccc(COc2nc(OCc3cc(C#N)cc(C#N)c3)c(CN[C@@H](CO)C(=O)O)cc2Cl)c1C [Example 124, (2S,2′S)-2,2′-((((((2,2′-dimethyl-[1,1′-biphenyl]-3,3′-diyl)bis(methylene))bis(oxy))bis(5-chloro-2-((3,5-dicyanobenzyl)oxy)pyridine-6,3-diyl))bis(methylene))bis(azanediyl))bis(3-hydroxypropanoic acid)] | 147 | 74 | ≥ 10000 |
| Cc1c(COc2nc(OC[C@H]3CCC(=O)N3)c(CNCC(=O)O)cc2Br)cccc1-c1cccc(COc2nc(OC[C@H]3CCC(=O)N3)c(CNCC(=O)O)cc2Br)c1C [Example 129, 2,2′-((((((2,2′-dimethyl-[1,1′-biphenyl]-3,3′-diyl)bis(methylene))bis(oxy))bis(5-bromo-2-(((R)-5-oxopyrrolidin-2-yl)methoxy)pyridine-6,3-diyl))bis(methylene))bis(azanediyl))diacetic acid] | 221 | 198 | 167 |
| Cc1c(COc2nc(OC[C@@H]3CCC(=O)N3)c(CNCC(=O)O)cc2Br)cccc1-c1cccc(COc2nc(OC[C@@H]3CCC(=O)N3)c(CNCC(=O)O)cc2Br)c1C [Example 130, 2,2′-((((((2,2′-dimethyl-[1,1′-biphenyl]-3,3′-diyl)bis(methylene))bis(oxy))bis(5-bromo-2-(((S)-5-oxopyrrolidin-2-yl)methoxy)pyridine-6,3-diyl))bis(methylene))bis(azanediyl))diacetic acid] | 123 | 164 | 237 |
| Cc1c(COc2nc(OCCc3cncnc3)c(CNCC(=O)O)cc2Cl)cccc1-c1cccc(COc2nc(OCCc3cncnc3)c(CNCC(=O)O)cc2Cl)c1C [Example 133, 2,2′-((((((2,2′-dimethyl-[1,1′-biphenyl]-3,3′-diyl)bis(methylene))bis(oxy))bis(5-chloro-2-(2-(pyrimidin-5-yl)ethoxy)pyridine-6,3-diyl))bis(methylene))bis(azanediyl))diacetic acid] | 129 | 288 | 282 |
| Cc1c(COc2nc(OCCC(=O)N(C)C)c(CNC[C@@H](O)CC(=O)O)cc2Br)cccc1-c1cccc(COc2nc(OCCC(=O)N(C)C)c(CNC[C@@H](O)CC(=O)O)cc2Br)c1C [Example 135, (3S,3′S)-4,4′-((((((2,2′-dimethyl-[1,1′-biphenyl]-3,3′-diyl)bis(methylene))bis(oxy))bis(5-bromo-2-(3-(dimethylamino)-3-oxopropoxy)pyridine-6,3-diyl))bis(methylene))bis(azanediyl))bis(3-hydroxybutanoic acid)] | 221 | 812 | 250 |
| Cc1c(COc2nc(OCCCCC#N)c(CNC[C@@H](O)CC(=O)O)cc2Br)cccc1-c1cccc(COc2nc(OCCCCC#N)c(CNC[C@@H](O)CC(=O)O)cc2Br)c1C [Example 143, (3S,3′S)-4,4′-((((((2,2′-dimethyl-[1,1′-biphenyl]-3,3′-diyl)bis(methylene))bis(oxy))bis(5-bromo-2-(4-cyanobutoxy)pyridine-6,3-diyl))bis(methylene))bis(azanediyl))bis(3-hydroxybutanoic acid)] | 296 | 217 | 395 |
